Data: patent publication US6403534B1, “Uracil compounds and use thereof” (Sumitomo Chemical Company, Limited, priority 2000, dated 2002)

Tests used:
velvetleaf [1] = assay: Test Example 4: soil surface treatment of field; format: in vivo, Abutilon theophrasti; parameters: key: “0” means that there was no or little difference in the degree of germination or growth between the treated and the untreated tested plants at the time of examination; “10” means that the test plants died completely or their germination or growth was completely inhibited; details: index 0 to 10, 12 days after application
Source text: (§1) Test for Soil Surface Treatment of Field A plastic pot having an area of (26.5×19) cm^2 and a depth of 7 cm was filled with soil and then seeded with ivyleaf morningglory, velvetleaf, barnyardgrass and giant foxtail. Then, each of the test compounds was formulated into an emulsifiable concentrate according to Formulation Example 2 and then diluted to the prescribed amount with water, and the dilution was uniformly sprayed over the surface of the soil with a sprayer at a rate of 1000 liters per hectare. After the application, the test plants were grown in the greenhouse for 12 days, and the herbicidal activity was examined. The herbicidal activity was evaluated by the same method as in Test Example 3.

ivyleaf morningglory [2] = assay: Test Example 4: soil surface treatment of field; format: in vivo, Ipomoea hederacea; parameters: key: “0” means that there was no or little difference in the degree of germination or growth between the treated and the untreated tested plants at the time of examination; “10” means that the test plants died completely or their germination or growth was completely inhibited; details: index 0 to 10, 12 days after application
Source text: as §1

barnyardgrass [3] = assay: Test Example 4: soil surface treatment of field; format: in vivo, Echinochloa crus-galli; parameters: key: “0” means that there was no or little difference in the degree of germination or growth between the treated and the untreated tested plants at the time of examination; “10” means that the test plants died completely or their germination or growth was completely inhibited; details: index 0 to 10, 12 days after application
Source text: as §1

blackgrass [4] = assay: Test Example 3: foliar treatment of field; format: in vivo, Alopecurus myosuroides; parameters: key: “0” means that there was no or little difference in the degree of germination or growth between the treated and the untreated tested plants at the time of examination; “10” means that the test plants died completely or their germination or growth was completely inhibited; details: index 0 to 10, 16 days after application
Method: (§2) Test for Foliar Treatment of Field A cylindrical plastic pot having a diameter of 10 cm and a depth of 10 cm was filled with soil and then seeded with ivyleaf morningglory and blackgrass. These test plants were grown in a greenhouse for 10 days. Then, each of the test compounds was formulated into an emulsifiable concentrate according to Formulation Example 2 and then diluted to the prescribed amount with water containing a spreading agent and the dilution was uniformly sprayed over the foliage of the test plants with a sprayer at a rate of 1000 liters per hectare. After the application, the test plants were grown in the greenhouse for 16 days, and the herbicidal activity was examined.

ivyleaf morningglory [5] = assay: Test Example 3: foliar treatment of field; format: in vivo, Ipomoea hederacea; parameters: key: “0” means that there was no or little difference in the degree of germination or growth between the treated and the untreated tested plants at the time of examination; “10” means that the test plants died completely or their germination or growth was completely inhibited; details: index 0 to 10, 16 days after application
Method: as §2

giant foxtail = assay: Test Example 4: soil surface treatment of field; format: in vivo, Setaria faberi; parameters: key: “0” means that there was no or little difference in the degree of germination or growth between the treated and the untreated tested plants at the time of examination; “10” means that the test plants died completely or their germination or growth was completely inhibited; details: index 0 to 10, 12 days after application
Source text: as §1

barnyardgrass [6] = assay: Test Example 2: soil surface treatment of field; format: in vivo, Echinochloa crus-galli; details: soil surface spray, 500 g/ha, examined 19 days after application
Source text: (§3) Test for Soil Surface Treatment of Field
(§4) A cylindrical plastic pot having a diameter of 10 cm and a depth of 10 cm was filled with soil and then seeded with barnyardgrass, blackgrass, ivyleaf morningglory and velvetleaf. Then, each of compounds 1-2, 1-3, 1-7, 1-19 and 1-28 was formulated into an emulsifiable concentrate according to Formulation Example 2 and then diluted to the prescribed amount with water, and the dilution was uniformly sprayed over the surface of the soil with a sprayer at a rate of 1000 liters per hectare. After the application, the test plants were grown in the greenhouse for 19 days, and the herbicidal activity was examined.

ivyleaf morningglory [7] = assay: Test Example 2: soil surface treatment of field; format: in vivo, Ipomoea hederacea; details: soil surface spray, 500 g/ha, examined 19 days after application
Source text: as §3, §4

blackgrass [8] = assay: Test Example 1: foliar treatment of field; format: in vivo, Alopecurus myosuroides; details: foliar spray, 125 g/ha, plants grown 14 days before, examined 16 days after application
Method: (§5) Test for Foliar Treatment of Field
(§6) A cylindrical plastic pot having a diameter of 10 cm and a depth of 10 cm was filled with soil and then seeded with barnyardgrass, blackgrass, ivyleaf morningglory and velvetleaf These test plants were grown in a greenhouse for 14 days. Then, each of compounds 1-2, 1-3, 1-7, 1-19 and 1-28 was formulated into an emulsifiable concentrate according to Formulation Example 2 and then diluted to the prescribed amount with water containing a spreading agent and the dilution was uniformly sprayed over the foliage of the test plants with a sprayer at a rate of 1000 liters per hectare. After the application, the test plants were grown in the greenhouse for 16 days, and the herbicidal activity was determined.

barnyardgrass [9] = assay: Test Example 1: foliar treatment of field; format: in vivo, Echinochloa crus-galli; details: foliar spray, 125 g/ha, plants grown 14 days before, examined 16 days after application
Method: as §5, §6

velvetleaf [10] = assay: Test Example 1: foliar treatment of field; format: in vivo, Abutilon theophrasti; details: foliar spray, 125 g/ha, plants grown 14 days before, examined 16 days after application
Method: as §5, §6

blackgrass [11] = assay: Test Example 2: soil surface treatment of field; format: in vivo, Alopecurus myosuroides; details: soil surface spray, 500 g/ha, examined 19 days after application
Source text: as §3, §4

ivyleaf morningglory [12] = assay: Test Example 1: foliar treatment of field; format: in vivo, Ipomoea hederacea; details: foliar spray, 125 g/ha, plants grown 14 days before, examined 16 days after application
Method: as §5, §6

velvetleaf [13] = assay: Test Example 2: soil surface treatment of field; format: in vivo, Abutilon theophrasti; details: soil surface spray, 500 g/ha, examined 19 days after application
Source text: as §3, §4

SMILES	Herbicidal activity Velvet leaf (velvetleaf [1]; dosage 32 g/ha)	Herbicidal activity Velvet leaf (velvetleaf [1]; dosage 125 g/ha)	Herbicidal activity Velvet leaf (velvetleaf [1]; dosage 500 g/ha)	Herbicidal activity Ivyleaf morningglory (ivyleaf morningglory [2]; dosage 32 g/ha)	Herbicidal activity Ivyleaf morningglory (ivyleaf morningglory [2]; dosage 125 g/ha)	Herbicidal activity Ivyleaf morningglory (ivyleaf morningglory [2]; dosage 500 g/ha)	Herbicidal activity Barnyard grass (barnyardgrass [3]; dosage 32 g/ha)	Herbicidal activity Barnyard grass (barnyardgrass [3]; dosage 125 g/ha)	Herbicidal activity Barnyard grass (barnyardgrass [3]; dosage 500 g/ha)	Herbicidal activity Blackgrass (blackgrass [4]; dosage 8 g/ha)	Herbicidal activity Blackgrass (blackgrass [4]; dosage 32 g/ha)	Herbicidal activity Blackgrass (blackgrass [4]; dosage 125 g/ha)	herbicidal activity (germination of barnyardgrass) (barnyardgrass [6])	herbicidal activity (germination of ivyleaf morningglory) (ivyleaf morningglory [7])	herbicidal activity (growth of blackgrass) (blackgrass [8])	herbicidal activity (growth of barnyardgrass) (barnyardgrass [9])	herbicidal activity (growth of velvetleaf) (velvetleaf [10])	herbicidal activity (germination of blackgrass) (blackgrass [11])	herbicidal activity (growth of ivyleaf morningglory) (ivyleaf morningglory [12])	herbicidal activity (germination of velvetleaf) (velvetleaf [13])	also measured
C=CCOC(=O)C(C)(C)Oc1cc(-n2c(=O)cc(C(F)(F)F)n(C)c2=O)c(F)cc1Cl [Comparative compound A, reference compound]	3	10	10	0	4	8	1	7	10	3	4	6	–	–	–	–	–	–	–	–	Herbicidal activity Ivyleaf morningglory (ivyleaf morningglory [5]; dosage 8 g/ha): 7; Herbicidal activity Ivyleaf morningglory (ivyleaf morningglory [5]; dosage 32 g/ha): 10; Herbicidal activity Ivyleaf morningglory (ivyleaf morningglory [5]; dosage 125 g/ha): 10; Herbicidal activity Giant foxtail (giant foxtail; dosage 32 g/ha): 4; Herbicidal activity Giant foxtail (giant foxtail; dosage 125 g/ha): 10; Herbicidal activity Giant foxtail (giant foxtail; dosage 500 g/ha): 10
COC(=O)C1(Oc2cc(-n3c(=O)cc(C(F)(F)F)n(C)c3=O)c(F)cc2Cl)CC1 [Compound 1-2, methyl 1-[2-chloro-4-fluoro-5-{3-methyl-2,6-dioxo-4-(trifluoro-methyl)-1,2,3,6-tetrahydropyrimidin-1-yl}phenoxy]cyclo-propanecarboxylate]	–	–	–	–	–	–	–	–	–	–	–	–	completely controlled	completely controlled	completely controlled	completely controlled	completely controlled	completely controlled	completely controlled	completely controlled	–
CCOC(=O)C1(Oc2cc(-n3c(=O)cc(C(F)(F)F)n(C)c3=O)c(F)cc2Cl)CC1 [Compound 1-3, ethyl 1-[2-chloro-4-fluoro-5-{3-methyl-2,6-dioxo-4-(trifluoromethyl)-1,2,3,6-tetrahydropyrimidin-1-yl}phenoxy]cyclopropanecarboxylate]	–	–	–	–	–	–	–	–	–	–	–	–	completely controlled	completely controlled	completely controlled	completely controlled	completely controlled	completely controlled	completely controlled	completely controlled	–
C=CCOC(=O)C1(Oc2cc(-n3c(=O)cc(C(F)(F)F)n(C)c3=O)c(F)cc2Cl)CC1 [Compound 1-7]	10	10	10	2	10	10	6	10	10	5	6	10	completely controlled	completely controlled	completely controlled	completely controlled	completely controlled	completely controlled	completely controlled	completely controlled	Herbicidal activity Ivyleaf morningglory (ivyleaf morningglory [5]; dosage 8 g/ha): 10; Herbicidal activity Ivyleaf morningglory (ivyleaf morningglory [5]; dosage 32 g/ha): 10; Herbicidal activity Ivyleaf morningglory (ivyleaf morningglory [5]; dosage 125 g/ha): 10; Herbicidal activity Giant foxtail (giant foxtail; dosage 32 g/ha): 10; Herbicidal activity Giant foxtail (giant foxtail; dosage 125 g/ha): 10; Herbicidal activity Giant foxtail (giant foxtail; dosage 500 g/ha): 10
CSC(=O)C1(Oc2cc(-n3c(=O)cc(C(F)(F)F)n(C)c3=O)c(F)cc2Cl)CC1 [Compound 1-19]	–	–	–	–	–	–	–	–	–	–	–	–	completely controlled	completely controlled	completely controlled	completely controlled	completely controlled	completely controlled	completely controlled	completely controlled	–
COC(=O)C(CC(C)C)NC(=O)C1(Oc2cc(-n3c(=O)cc(C(F)(F)F)n(C)c3=O)c(F)cc2Cl)CC1 (stereo not shown) [Compound 1-28]	–	–	–	–	–	–	–	–	–	–	–	–	completely controlled	completely controlled	completely controlled	completely controlled	completely controlled	completely controlled	completely controlled	completely controlled	–
